In patent publication US20150038545A1, “HYDROXYPHENYL PYRROLE COMPOUNDS CONTAINING AN HYDROXAMIC ACID AS HDAC INHIBITORS AND MEDICINAL APPLICATIONS THEREOF” (UNIVERSIDAD DEL PAÍS VASCO, priority 2011, published 2015):

Biological target: T1, Human HDAC10 (Homo sapiens, UniProt Q969S8)
T1 construct: Amino acids 1-631 with Nterminal GST tag, MW=96 kDa; GST (N); purchased BioMol SE-559; host or cells: Sf9 cells, baculovirus
T1 sequence (Q969S8 1-631): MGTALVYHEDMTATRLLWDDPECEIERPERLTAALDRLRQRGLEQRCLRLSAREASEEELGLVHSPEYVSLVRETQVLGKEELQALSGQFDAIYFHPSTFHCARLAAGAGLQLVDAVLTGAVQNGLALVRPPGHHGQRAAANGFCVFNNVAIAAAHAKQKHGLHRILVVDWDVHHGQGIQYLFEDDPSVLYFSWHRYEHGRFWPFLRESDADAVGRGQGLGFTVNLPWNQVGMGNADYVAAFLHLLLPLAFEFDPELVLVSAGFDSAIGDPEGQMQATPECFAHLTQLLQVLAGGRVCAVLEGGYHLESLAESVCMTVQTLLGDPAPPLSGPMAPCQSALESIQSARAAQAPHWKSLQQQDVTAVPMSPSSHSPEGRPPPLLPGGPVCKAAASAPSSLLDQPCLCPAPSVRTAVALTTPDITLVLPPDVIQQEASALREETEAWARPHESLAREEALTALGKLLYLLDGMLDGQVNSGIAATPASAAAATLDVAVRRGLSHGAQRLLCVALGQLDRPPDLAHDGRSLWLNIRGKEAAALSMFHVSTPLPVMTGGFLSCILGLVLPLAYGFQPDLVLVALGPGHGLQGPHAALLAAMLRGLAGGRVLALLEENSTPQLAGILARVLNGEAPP
Assay: In vitro HDAC10 inhibition, fluorogenic peptide assay
Assay type: biochemical
Settings: for IC50: read-out: IC50 (nM) of enzyme activity HDAC10
Experimental: All HDAC assays were performed using acetylated AMC-labeled peptide substrate: • Substrate for isoforms HDAC1, 2, 3, 4, 5, 6, 7, 9, 10, 11 and HeLa nuclear extract assays: Acetylated fluorogenic peptide from p53 residues 379-382 (RHKKAc) (BioMol. Cat. # KI-104). • Substrate for HDAC8 assays: Acetylated fluorogenic peptide from p53 residues 379-382 (RHKAcKAc) (BioMol. Cat. # KI-178).
Enzymes: • HDAC1 assay: 75 nM Human HDAC1 (GenBank Accession No. NM_004964): Full length with C-terminal GST tag, MW=79.9 kDa, expressed by baculovirus expression system in Sf9 cells (BioMol. Cat. # SE-456). • HDAC2 assay: 5 nM Human HDAC2 (GenBank Accession No. Q92769): Full length with C-terminal His tag, MW=60 kDa, expressed by baculovirus expression system in Sf9 cells (BioMol. Cat. # SE-500). • HDAC3 assay: 2.3 nM Human HDAC3/NcoR2 (GenBank Accession No. NM_003883 for HDAC3, GenBank Accession No.NM_006312 for NcoR2): Complex of human HDAC3, full length with C-terminal His tag, MW=49.7 kDa, and human NCOR2, N-terminal GST tag, MW=39 kDa, co-expressed in baculovirus expression system (BioMol. Cat. # SE-507). • HDAC4 assay: 266 nM Human HDAC4 (GenBank Accession No. NM_006037): Amino acids 627-1085 with N-terminal GST tag, MW=75.2 kDa, expressed in baculovirus expression system (BioMol, Hamburg, Germany). • HDAC5 assay: 588 nM Human HDAC5 (GenBank Accession No. NM_001015053): Full length with Nterminal GST tag, MW=150 kDa, expressed by baculovirus expression system in Sf9 cells (BioMol, Hamburg, Germany). • HDAC6 assay: 13 nM Human HDAC6 (GenBank Accession No. BC069243): Full length with N-terminal GST tag, MW=159 kDa, expressed by baculovirus expression system in Sf9 cells (BioMol. Cat. # SE-508). • HDAC7 assay: 962 nM Human HDAC7 (GenBank Accession No. AY302468): Amino acids 518-end with N-terminal GST tag, MW=78 kDa, expressed in baculovirus expression system (BioMol, Hamburg, Germany). • HDAC8 assay: 119 nM Human HDAC8 (GenBank Accession No. NM018486): Full length, MW=42 kDa, expressed in an E. coli expression system (BioMol. […]
The reactions were carried out in a 96-well microplate for fluorometry in a 50 μl reaction volume. […] The reaction was allowed to develop for 45 minutes at 30° C. with 5% CO2; then the fluorescent signal was measured with an excitation wavelength at 360 nm and an emission wavelength at 460 nm in a microplate-reading fluorometer (GeminiXS; Molecular Devices, Sunnyvale, Calif.). […] IC50 was calculated by fitting the experimental data to a dose-response curve. […]

Row | Selectivity against HDAC6 (IC50 HDACx/IC50 HDAC6) HDAC10 (IC50 HDAC10/IC50 HDAC6) | IC50 | Structure (SMILES)
1 | 17.3 | 346 nM | COc1ccc(-c2cc(-c3ccccc3)[nH]c2C(=O)NCCCCCC(=O)NO)cc1 [Compound A, N-[6-(hydroxyamino)-6-oxohexyl]-3-(4-methoxyphenyl)-5-phenyl-1H-pyrrole-2-carboxamide, reference compound]
2 |  | 14 nM | O=C(CCCCCNC(=O)c1[nH]c(-c2ccc(O)cc2)cc1-c1ccoc1)NO [Example 5, 3-(3-furyl)-N-(5-(hydroxycarbamoyl)pentyl)-5-(4-hydroxy-phenyl)-1H-pyrrole-2-carboxamide]
3 |  | 47 nM | O=C(CCCCCNC(=O)c1[nH]c(-c2ccc(O)cc2)cc1-c1ccsc1)NO [Example 6, N-(5-(hydroxycarbamoyl)pentyl)-5-(4-hydroxyphenyl)-3-(3-thienyl)-1H-pyrrole-2-carboxamide]
